Laboratory results published in the supplement of paper PMC10307832.

Assays:
Assay in all cases: relative viability (nuclei count vs DMSO), 5 days (fraction); higher = more cells survive
Tosedostat + Decitabine = compound: CC(C)C[C@@H](C(=O)N[C@H](C(=O)OC1CCCC1)c1ccccc1)[C@H](O)C(=O)NO [Tosedostat] + Nc1ncn([C@H]2C[C@H](O)[C@@H](CO)O2)c(=O)n1 [Decitabine] (partner 2 µM)
Procedure, shortened: (§1)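 Relative viability was taken as the ratio of nuclei in treated wells to nuclei in vehicle wells. Lung cancer cell lines in 1536-well plates received compounds by pin tool one day after seeding, either one drug alone or a fixed anchor-drug dose plus five library-drug doses (not always all listed) in √10 steps. Nuclei were counted on 4× images after 5 days of treatment, and values are medians of duplicate plates.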

Tosedostat + Pictilisib = compound: CC(C)C[C@@H](C(=O)N[C@H](C(=O)OC1CCCC1)c1ccccc1)[C@H](O)C(=O)NO [Tosedostat] + CS(=O)(=O)N1CCN(Cc2cc3nc(-c4cccc5[nH]ncc45)nc(N4CCOCC4)c3s2)CC1 [Pictilisib] (partner 1 µM)
Procedure, shortened: as §1

[1] = compound: CC1=NN=C(O1)C2=NN=C(C=C2)N3CCC(CC3)OC4=C(C=CC(=C4)F)Cl + NC(=O)Nc1cc(-c2cccc(F)c2)sc1C(=O)N[C@H]1CCCNC1 [AZD7762] (partner 0.2 µM)
Procedure, shortened: as §1

[2] = compound: CC1=NN=C(O1)C2=NN=C(C=C2)N3CCC(CC3)OC4=C(C=CC(=C4)F)Cl + CC(=O)Nc1cccc(-n2c(=O)n(C3CC3)c(=O)c3c(Nc4ccc(I)cc4F)n(C)c(=O)c(C)c32)c1 [Trametinib] (partner 0.02 µM)
Procedure, shortened: as §1

Cell Line | relative viability (Tosedostat + Decitabine; first compound 0.02 µM) | relative viability (Tosedostat + Decitabine; first compound 0.06325 µM) | relative viability (Tosedostat + Decitabine; first compound 0.2 µM) | relative viability (Tosedostat + Decitabine; first compound 0.6325 µM) | relative viability (Tosedostat + Decitabine; first compound 2 µM) | relative viability (Tosedostat + Pictilisib; first compound 0.02 µM) | relative viability (Tosedostat + Pictilisib; first compound 0.06325 µM) | relative viability (Tosedostat + Pictilisib; first compound 0.2 µM) | relative viability (Tosedostat + Pictilisib; first compound 0.6325 µM) | relative viability (Tosedostat + Pictilisib; first compound 2 µM) | relative viability ([1]; first compound 0.253 µM) | relative viability ([1]; first compound 0.8 µM) | relative viability ([1]; first compound 2.53 µM) | relative viability ([1]; first compound 8 µM) | relative viability ([2]; first compound 0.253 µM) | relative viability ([2]; first compound 0.8 µM) | relative viability ([2]; first compound 2.53 µM) | relative viability ([2]; first compound 8 µM)
NCI-H2347 | 0.64 | 0.609 | 0.667 | 0.444 | 0.542 | 0.659 | 0.662 | 0.554 | 0.771 | 0.552 | 0.56 | 0.572 | 0.637 | 0.489 | 0.234 | 0.288 | 0.256 | 0.246
NCI-H2405 | 0.772 | 0.733 | 0.712 | 0.603 | 0.657 | 0.578 | 0.499 | 0.478 | 0.467 | 0.445 | 0.684 | 0.684 | 0.627 | 0.654 | 0.526 | 0.451 | 0.432 | 0.411
NCI-H3122 | 0.497 | 0.524 | 0.447 | 0.411 | 0.418 | 0.663 | 0.659 | 0.615 | 0.692 | 0.704 | 0.444 | 0.469 | 0.503 | 0.485 | 0.173 | 0.224 | 0.224 | 0.232
PC-3 [JPC-3] | 0.833 | 0.813 | 0.872 | 0.768 | 0.555 | 0.756 | 0.771 | 0.602 | 0.576 | 0.501 | 0.702 | 0.602 | 0.728 | 0.914 | 0.634 | 0.684 | 0.668 | 0.748
PC-14 | 0.218 | 0.177 | 0.146 | 0.0843 | 0.0753 | 0.789 | 0.647 | 0.555 | 0.385 | 0.458 | 0.28 | 0.271 | 0.374 | 0.253 | 0.732 | 0.658 | 0.582 | 0.428
RERF-LC-KJ | 0.657 | 0.622 | 0.615 | 0.495 | 0.457 | 0.463 | 0.647 | 0.45 | 0.471 | 0.433 | 0.53 | 0.569 | 0.564 | 0.554 | 0.665 | 0.593 | 0.595 | 0.612
